Measurements from US12679849B2, “Macrocyclic compounds as STING agonists” (LUPIN LIMITED, priority 2019, dated 2026).

Molecular target: T1, Human STING (Homo sapiens, UniProt Q86WV6, G230A/H232R/R293Q/R71H)
T1 construct: using human THP1-Blue™ ISG SEAP based reporter cell line (Invivogen); host or cells: THP1-Blue ISG (human monocytic THP-1 derived SEAP reporter line)
Test: Stimulation of human STING signalling in THP1-Blue ISG SEAP reporter cell line
Format: cell-based
Details: THP1-Blue ISG cells, 18-20 hours incubation
Protocol: Stimulation of Human STING Signalling in THP1 Cell Line
Compounds were tested for their STING activation potential using human THP1-Blue™ ISG SEAP based reporter cell line (Invivogen). Briefly, THP1-Blue ISG cells (100,000 cells/well) in 96 well plate were treated with varying concentrations of test and reference compounds and incubated at 37° C. with 5% CO2 for 18-20 hours. The control untreated cells were also set up. Post incubation, the cell supernatant was tested for SEAP (Secreted Embryonic Alkaline Phosphatase) activity using the QuantiBlue™ substrate reagent (Invivogen). The formation of blue coloured product was quantified by measuring absorbance at wavelength of 620 nm using PheraStar/Tecan reader. The average of duplicate readouts for each data point was plotted in GraphPad prism 6 against the concentration of test or reference compound to calculate EC50 value. The fold of SEAP induction or increase in luminescence at different data points was estimated against the un-stimulated cell control set.

T1 sequence (Q86WV6 whole entry R71H/G230A/H232R/R293Q): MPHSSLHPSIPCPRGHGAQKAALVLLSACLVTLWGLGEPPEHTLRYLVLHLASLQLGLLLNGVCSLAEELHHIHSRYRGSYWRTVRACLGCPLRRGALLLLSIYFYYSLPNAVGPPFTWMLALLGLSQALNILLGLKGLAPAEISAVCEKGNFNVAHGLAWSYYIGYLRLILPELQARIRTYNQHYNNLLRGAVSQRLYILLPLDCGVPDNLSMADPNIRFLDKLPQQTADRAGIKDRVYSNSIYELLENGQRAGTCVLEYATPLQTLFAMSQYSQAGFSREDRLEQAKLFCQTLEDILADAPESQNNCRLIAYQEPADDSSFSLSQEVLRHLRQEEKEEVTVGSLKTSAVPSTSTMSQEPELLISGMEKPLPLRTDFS

**Q.** Which EC50 does the source give for CCn1nc(C)cc1C(=O)Nc1nc2cc(C(N)=O)cc3c2n1C/C=C/Cn1c(NC(=O)c2cc(C)nn2CC)nc2cc(C(N)=O)cc(c21)OCC(CN1CCOCC1)CO3 [Compound 16, (E)-1,15-bis(1-ethyl-3-methyl-1H-pyrazole-5-carboxamido)-8-(morpholinomethyl)-8,9,16,19-tetrahydro-7H-6,10-dioxa-2,14,15a,19a-tetraazacyclopentadeca[3,2,1-cd:8,9,10-c′d′]diindene-4,12-dicarboxamide] here?
**A.** 11 to 100 nM

**Q.** For CCn1nc(C)cc1C(=O)Nc1nc2cc(C(N)=O)cc3c2n1C/C=C/Cn1c(NC(=O)c2cc(C)nn2CC)nc2cc(C(N)=O)cc(c21)OCC(N1CCC(O)CC1)CO3 [Compound 22, (E)-1,15-bis(1-ethyl-3-methyl-1H-pyrazole-5-carboxamido)-8-(4-hydroxypiperidin-1-yl)-8,9,16,19-tetrahydro-7H-6,10-dioxa-2,14,15a,19a-tetraazacyclopentadeca[3,2,1-cd:8,9,10-c′d′]diindene-4,12-dicarboxamide], which EC50 is on record?
**A.** 11 to 100 nM

**Q.** For CCn1nc(C)cc1C(=O)Nc1nc2cc(C(N)=O)cc3c2n1C/C=C/Cn1c(NC(=O)c2cc(C)nn2CC)nc2cc(C(N)=O)cc(c21)OCC(N1CC[C@H](O)C1)CO3 [Compound 11, (S,E)-1,15-bis(1-ethyl-3-methyl-1H-pyrazole-5-carboxamido)-8-(3-hydroxypyrrolidin-1-yl)-8,9,16,19-tetrahydro-7H-6,10-dioxa-2,14,15a,19a-tetraazacyclopentadeca[3,2,1-cd:8,9,10-c′d′]diindene-4,12-dicarboxamide], which EC50 is on record?
**A.** 1 to 10 nM

**Q.** Which EC50 does the source give for CCn1nc(C)cc1C(=O)Nc1nc2cc(C(N)=O)cc3c2n1C/C=C/Cn1c(NC(=O)c2cc(C)nn2CCF)nc2cc(C(N)=O)cc(c21)OCC(N1CCOCC1)CO3 (centres unmarked) [Compound 17, (E)-15-(1-ethyl-3-methyl-1H-pyrazole-5-carboxamido)-1-(1-(2-fluoroethyl)-3-methyl-1H-pyrazole-5-carboxamido)-8-morpholino-8,9,16,19-tetrahydro-7H-6,10-dioxa-2,14,15a,19a-tetraazacyclopentadeca[3,2,1-cd:8,9,10-c′d′]diindene-4,12-dicarboxamide] here?
**A.** 11 to 100 nM

**Q.** For CCn1nc(C)cc1C(=O)Nc1nc2cc(C(N)=O)cc3c2n1C/C=C/Cn1c(NC(=O)c2cc(C)nn2CC)nc2cc(C(N)=O)cc(c21)OCC(C1CCN(C)CC1)CO3 [Compound 9, (E)-1,15-bis(1-ethyl-3-methyl-1H-pyrazole-5-carboxamido)-8-(1-methylpiperidin-4-yl)-8,9,16,19-tetrahydro-7H-6,10-dioxa-2,14,15a,19a-tetraazacyclopentadeca[3,2,1-cd:8,9,10-c′d′]diindene-4,12-dicarboxamide], which EC50 is on record?
**A.** 11 to 100 nM

**Q.** How did the EC50 turn out when CCn1nc(C)cc1C(=O)Nc1nc2cc(C(N)=O)cc3c2n1C/C=C/Cn1c(NC(=O)c2cc(C)nn2CC)nc2cc(C(N)=O)cc(c21)OCC(N1CC[C@@H](O)C1)CO3 [Compound 12, (R,E)-1,15-bis(1-ethyl-3-methyl-1H-pyrazole-5-carboxamido)-8-(3-hydroxypyrrolidin-1-yl)-8,9,16,19-tetrahydro-7H-6,10-dioxa-2,14,15a,19a-tetraazacyclopentadeca[3,2,1-cd:8,9,10-c′d′]diindene-4,12-dicarboxamide] was run?
**A.** 1 to 10 nM

**Q.** Which EC50 does the source give for CCn1nc(C)cc1C(=O)Nc1nc2cc(C(N)=O)cc3c2n1C/C=C/Cn1c(NC(=O)c2cc(C)nn2CC)nc2cc(C(N)=O)cc(c21)OCC(N1CC[C@H](OC)C1)CO3 [Compound 6, (S,E)-1,15-bis(1-ethyl-3-methyl-1H-pyrazole-5-carboxamido)-8-(3-methoxypyrrolidin-1-yl)-8,9,16,19-tetrahydro-7H-6,10-dioxa-2,14,15a,19a-tetraazacyclopentadeca[3,2,1-cd:8,9,10-c′d′]diindene-4,12-dicarboxamide] here?
**A.** 1 to 10 nM

**Q.** How did the EC50 turn out when CCn1nc(C)cc1C(=O)Nc1nc2cc(C(N)=O)cc3c2n1C/C=C/Cn1c(NC(=O)c2cc(C)nn2CC)nc2cc(C(N)=O)cc(c21)OCC(N1CCOCC1)CO3 [Compound 3, (E)-1,15-bis(1-ethyl-3-methyl-1H-pyrazole-5-carboxamido)-8-morpholino-8,9,16,19-tetrahydro-7H-6,10-dioxa-2,14,15a,19a-tetraazacyclopentadeca[3,2,1-cd:8,9,10-c′d′]diindene-4,12-dicarboxamide] was run?
**A.** 1 to 10 nM

**Q.** For CCn1nc(C)cc1C(=O)Nc1nc2cc(C(N)=O)cc3c2n1C/C=C/Cn1c(NC(=O)c2cc(C)nn2CC)nc2cc(C(N)=O)cc(c21)OCC(N1C[C@@H](C)O[C@@H](C)C1)CO3 [Compound 5, (E)-8-((2S,6R)-2,6-dimethylmorpholino)-1,15-bis(1-ethyl-3-methyl-1H-pyrazole-5-carboxamido)-8,9,16,19-tetrahydro-7H-6,10-dioxa-2,14,15a,19a-tetraazacyclopentadeca[3,2,1-cd:8,9,10-c′d′]diindene-4,12-dicarboxamide], which EC50 is on record?
**A.** 1 to 10 nM

**Q.** With CCn1nc(C)cc1C(=O)Nc1nc2cc(C(N)=O)cc3c2n1C/C=C/Cn1c(NC(=O)c2cc(C)nn2CC)nc2cc(C(N)=O)cc(c21)OCC(N1CCC(C#N)C1)CO3 (centres unmarked) [Compound 26, (E)-8-(3-cyanopyrrolidin-1-yl)-1,15-bis(1-ethyl-3-methyl-1H-pyrazole-5-carboxamido)-8,9,16,19-tetrahydro-7H-6,10-dioxa-2,14,15a,19a-tetraazacyclopentadeca[3,2,1-cd:8,9,10-c′d′]diindene-4,12-dicarboxamide] as the molecule, how does the EC50 read?
**A.** 1 to 10 nM

**Q.** With CCn1nc(C)cc1C(=O)Nc1nc2cc(C(N)=O)cc3c2n1C/C=C/Cn1c(NC(=O)c2cc(C)nn2CC)nc2cc(C(N)=O)cc(c21)OCC(CCN1CCOCC1)CO3 [Compound 13, (E)-1,15-bis(1-ethyl-3-methyl-1H-pyrazole-5-carboxamido)-8-(2-morpholinoethyl)-8,9,16,19-tetrahydro-7H-6,10-dioxa-2,14,15a,19a-tetraazacyclopentadeca[3,2,1-cd:8,9,10-c′d′]diindene-4,12-dicarboxamide] as the molecule, how does the EC50 read?
**A.** 11 to 100 nM

**Q.** For CCn1nc(C)cc1C(=O)Nc1nc2cc(C(N)=O)cc3c2n1C/C=C/Cn1c(NC(=O)c2cc(C)nn2CC)nc2cc(C(N)=O)cc(c21)O[C@H]1CN[C@@H](CO3)C1 [Compound 20, (33R,35R,E)-12,62-bis(1-ethyl-3-methyl-1H-pyrazole-5-carboxamido)-11H,61H-2,5-dioxa-1,6(7,1)-dibenzo[d]imidazola-3(3,5)-pyrrolidinacyclodecaphan-8-ene-15,65-dicarboxamide], which EC50 is on record?
**A.** 11 to 100 nM

**Q.** For CCn1nc(C)cc1C(=O)Nc1nc2cc(C(N)=O)cc3c2n1C/C=C/Cn1c(NC(=O)c2cc(C)nn2CC)nc2cc(C(N)=O)cc(c21)OCC(n1ccnc1)CO3 [Compound 19, (E)-1,15-bis(1-ethyl-3-methyl-1H-pyrazole-5-carboxamido)-8-(1H-imidazol-1-yl)-8,9,16,19-tetrahydro-7H-6,10-dioxa-2,14,15a,19a-tetraazacyclopentadeca[3,2,1-cd:8,9,10-c′d′]diindene-4,12-dicarboxamide], which EC50 is on record?
**A.** 1 to 10 nM

**Q.** For CCn1nc(C)cc1C(=O)Nc1nc2cc(C(N)=O)cc3c2n1C/C=C/Cn1c(NC(=O)c2cc(C)nn2CC)nc2cc(C(N)=O)cc(c21)OCC(N1CC[C@@H](OC)C1)CO3 [Compound 35, (R,E)-1,15-bis(1-ethyl-3-methyl-1H-pyrazole-5-carboxamido)-8-(3-methoxypyrrolidin-1-yl)-8,9,16,19-tetrahydro-7H-6,10-dioxa-2,14,15a,19a-tetraazacyclopentadeca[3,2,1-cd:8,9,10-c′d′]diindene-4,12-dicarboxamide], which EC50 is on record?
**A.** 1 to 10 nM
